Data published in the supplement of paper PMC8967900.

What was measured:
Test in all cases: selective drug sensitivity score (sDSS, relative to normal bone marrow) (sDSS (score)); higher = more potent and effective on the cell line relative to normal bone marrow cells
Settings in all cases: 72 h
COG-LL-319h = system: COG-LL-319h
TANOUE = system: TANOUE
KARPAS-45 = system: KARPAS-45
ALL-PO = system: ALL-PO
MOLT-4 = system: MOLT-4
COG-LL-355h = system: COG-LL-355h
SEM cells = system: SEM cells
HPB-ALL = system: HPB-ALL
REH = system: REH
PEER = system: PEER
SUP-B15 = system: SUP-B15
COG-LL-317 = system: COG-LL-317
MHH-CALL-3 = system: MHH-CALL-3
NALM-6 = system: NALM-6
LC4-1 = system: LC4-1
KOPN-8 = system: KOPN-8
JURKAT = system: JURKAT
COG-LL-402h = system: COG-LL-402h
NALM-16 = system: NALM-16
CCRF-CEM = system: CCRF-CEM
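Also: ALL cell lines in 384-well plates, five doses spanning 10,000-fold, each plate scaled between vehicle and 100 µmol/L benzalkonium chloride controls, sDSS an adapted area-under-curve metric.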

Structure (SMILES)	selective drug sensitivity score (COG-LL-319h)	selective drug sensitivity score (TANOUE)	selective drug sensitivity score (KARPAS-45)	selective drug sensitivity score (ALL-PO)	selective drug sensitivity score (MOLT-4)	selective drug sensitivity score (COG-LL-355h)	selective drug sensitivity score (SEM cells)	selective drug sensitivity score (HPB-ALL)	selective drug sensitivity score (REH)	selective drug sensitivity score (PEER)	selective drug sensitivity score (SUP-B15)	selective drug sensitivity score (COG-LL-317)	selective drug sensitivity score (MHH-CALL-3)	selective drug sensitivity score (NALM-6)	selective drug sensitivity score (LC4-1)	selective drug sensitivity score (KOPN-8)	selective drug sensitivity score (JURKAT)	selective drug sensitivity score (COG-LL-402h)	selective drug sensitivity score (NALM-16)	selective drug sensitivity score (CCRF-CEM)
CNC(=O)c1ccccc1Sc1ccc2c(/C=C/c3ccccn3)n[nH]c2c1 [Axitinib] (top concentration 10000 nM)	7.96	-2.94	6.36	9.16	12.2	-0.74	13.1	7.56	9.36	17.3	16.4	8.26	-2.44	7.86	11.8	6.06	5.06	5.86	-2.34	9.26
Cc1c(N)nc([C@H](CC(N)=O)NC[C@H](N)C(N)=O)nc1C(=O)N[C@H](C(=O)N[C@H](C)[C@@H](O)[C@H](C)C(=O)N[C@H](C(=O)NCCc1nc(-c2nc(C(=O)NCCC[S+](C)C)cs2)cs1)[C@@H](C)O)[C@@H](O[C@@H]1O[C@@H](CO)[C@@H](O)[C@H](O)[C@@H]1O[C@H]1O[C@H](CO)[C@@H](O)[C@H](OC(N)=O)[C@@H]1O)c1c[nH]cn1 [Bleomycin] (top concentration 10000 nM)	7.84	-1.86	1.94	-1.76	2.24	4.14	11.1	-1.86	9.44	-0.66	6.44	5.14	4.14	5.74	0.54	7.34	-0.96	2.84	-1.86	1.04
CC(C)C[C@H](NC(=O)[C@H](Cc1ccccc1)NC(=O)c1cnccn1)B(O)O [Bortezomib] (top concentration 1000 nM)	4.02	-9.68	1.42	4.82	2.22	5.92	12.9	5.22	4.92	2.32	8.42	3.02	2.72	1.82	3.32	3.42	1.72	1.32	2.32	6.52
CCC/C=C/C=C/C(=O)O[C@H]1/C(=C/C(=O)OC)C[C@H]2C[C@H]([C@@H](C)O)OC(=O)C[C@H](O)C[C@@H]3C[C@H](OC(C)=O)C(C)(C)[C@](O)(C[C@@H]4C/C(=C/C(=O)OC)C[C@H](/C=C/C(C)(C)[C@]1(O)O2)O4)O3 [Bryostatin_1] (top concentration 100 nM)	-7.12	-6.82	-7.12	-7.12	-7.12	-7.12	-7.12	-7.12	-7.12	-7.12	15.6	-6.82	-7.12	-7.12	30.6	26.9	-0.02	-5.72	-6.92	-7.12
CO[C@H]1CC[C@H](N2C(=O)CNc3ncc(-c4ccc(C(C)(C)O)nc4)nc32)CC1 [CC-223] (top concentration 10000 nM)	5.12	-3.88	2.22	0.22	-0.48	1.12	0.72	-0.28	4.22	1.02	-1.38	-0.48	8.82	1.42	0.42	8.12	0.02	2.92	0.72	4.42
CN(C)c1cc2c(cc1Sc1nc3c(N)nccc3n1CCNCC(C)(C)C)OCO2 [CUDC-305] (top concentration 10000 nM)	-2.48	-6.68	5.02	7.52	6.02	2.42	5.12	4.42	3.32	0.42	3.22	7.62	-11.7	4.72	-0.98	4.32	1.22	3.92	1.12	3.32
CO[C@H]1C(=O)[C@]2(C)[C@@H](OC)C[C@H]3OC[C@@]3(OC(C)=O)[C@H]2[C@H](OC(=O)c2ccccc2)[C@]2(O)C[C@H](OC(=O)[C@H](O)[C@@H](NC(=O)OC(C)(C)C)c3ccccc3)C(C)=C1C2(C)C [Cabazitaxel] (top concentration 1000 nM)	16.9	-11.5	18.9	15.1	18.4	2.58	19.5	11.6	17.9	23	21.9	26.2	6.78	15.9	22.4	17.9	18.3	17.1	11.4	20.5
C=CC(=O)Nc1cc2c(Nc3ccc(F)c(Cl)c3)ncnc2cc1OCCCN1CCOCC1 [Canertinib] (top concentration 10000 nM)	3.36	-7.24	-0.24	2.86	-2.14	5.96	2.56	0.76	0.26	2.26	3.16	2.96	12.6	-1.34	2.76	4.36	-1.14	4.86	-0.14	1.56
